# In PubChem BioAssay (NCI):
#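 Cultured in 96-well plates, cells were exposed to test compound for 48 hours across five concentrations. TGI denotes the concentration required for complete inhibition of growth.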
# Key:
# Assay in all cases: NCI anticancer screen, dose series, 48 h
# PC-3 prostate = tested on: PC-3 prostate
# M14 melanoma = tested on: M14 melanoma
# HS 578T breast = tested on: HS 578T breast
# NCI-H460 lung = tested on: NCI-H460 lung
# SNB-19 CNS = tested on: SNB-19 CNS
# NCI-H226 lung = tested on: NCI-H226 lung
# KM12 colon = tested on: KM12 colon
# MALME-3M melanoma = tested on: MALME-3M melanoma
# UACC-257 melanoma = tested on: UACC-257 melanoma
# OVCAR-5 ovarian = tested on: OVCAR-5 ovarian
# MDA-N = tested on: MDA-N
# HT29 colon = tested on: HT29 colon
# HCT-15 colon = tested on: HCT-15 colon
# SF-295 CNS = tested on: SF-295 CNS
# SK-MEL-28 melanoma = tested on: SK-MEL-28 melanoma
# 786-0 renal = tested on: 786-0 renal
# MCF7 breast = tested on: MCF7 breast
# MDA-MB-231 breast = tested on: MDA-MB-231 breast
# COLO 205 colon = tested on: COLO 205 colon
# T-47D breast = tested on: T-47D breast
# SW-620 colon = tested on: SW-620 colon
# SF-539 CNS = tested on: SF-539 CNS
# RPMI-8226 leukemia = tested on: RPMI-8226 leukemia
# RXF 393 renal = tested on: RXF 393 renal
# SR leukemia = tested on: SR leukemia
# U251 CNS = tested on: U251 CNS
# LOX IMVI melanoma = tested on: LOX IMVI melanoma
# IGROV1 ovarian = tested on: IGROV1 ovarian
# DU-145 prostate = tested on: DU-145 prostate
# A549 NSCLC = tested on: A549 NSCLC
# MDA-MB-435 = tested on: MDA-MB-435
# SK-MEL-2 melanoma = tested on: SK-MEL-2 melanoma
# HL-60(TB) leukemia = tested on: HL-60(TB) leukemia
# ACHN renal = tested on: ACHN renal
# HOP-62 NSCLC = tested on: HOP-62 NSCLC
# EKVX NSCLC = tested on: EKVX NSCLC
# NCI-H23 lung = tested on: NCI-H23 lung
# CCRF-CEM leukemia = tested on: CCRF-CEM leukemia
# SN12C renal = tested on: SN12C renal
# OVCAR-8 ovarian = tested on: OVCAR-8 ovarian
# SNB-75 CNS = tested on: SNB-75 CNS
# HOP-92 NSCLC = tested on: HOP-92 NSCLC
# HCC-2998 colon = tested on: HCC-2998 colon
# SK-MEL-5 melanoma = tested on: SK-MEL-5 melanoma
# CAKI-1 renal = tested on: CAKI-1 renal
# NCI-H522 lung = tested on: NCI-H522 lung
# SF-268 CNS = tested on: SF-268 CNS
# BT-549 breast = tested on: BT-549 breast
# OVCAR-3 ovarian = tested on: OVCAR-3 ovarian
# OVCAR-4 ovarian = tested on: OVCAR-4 ovarian
# SK-OV-3 ovarian = tested on: SK-OV-3 ovarian
# HCT-116 colon = tested on: HCT-116 colon
# UO-31 renal = tested on: UO-31 renal
# NCI/ADR-RES ovarian = tested on: NCI/ADR-RES ovarian
# A498 renal = tested on: A498 renal
# UACC-62 melanoma = tested on: UACC-62 melanoma
# TK-10 renal = tested on: TK-10 renal
# K-562 leukemia = tested on: K-562 leukemia
smiles,measurement,setting,value
COc1ccc(C(=O)/C=C/c2cc(O)c(O)c(F)c2F)c(OC)c1,TGI,PC-3 prostate,40.6 µM
same,TGI,M14 melanoma,> 100 µM
same,TGI,HS 578T breast,> 100 µM
same,TGI,NCI-H460 lung,22.8 µM
same,TGI,SNB-19 CNS,> 100 µM
same,TGI,NCI-H226 lung,56.6 µM
same,TGI,KM12 colon,33.5 µM
same,TGI,MALME-3M melanoma,31.3 µM
same,TGI,UACC-257 melanoma,41.8 µM
same,TGI,OVCAR-5 ovarian,95.7 µM
same,TGI,MDA-N,80.3 µM
same,TGI,HT29 colon,> 100 µM
same,TGI,HCT-15 colon,36.6 µM
same,TGI,SF-295 CNS,> 100 µM
same,TGI,SK-MEL-28 melanoma,> 100 µM
same,TGI,786-0 renal,41.9 µM
same,TGI,MCF7 breast,49.1 µM
same,TGI,MDA-MB-231 breast,58.2 µM
same,TGI,COLO 205 colon,53.1 µM
same,TGI,T-47D breast,> 100 µM
same,TGI,SW-620 colon,> 100 µM
same,TGI,SF-539 CNS,65.3 µM
same,TGI,RPMI-8226 leukemia,40.8 µM
same,TGI,RXF 393 renal,59.6 µM
same,TGI,SR leukemia,26.8 µM
same,TGI,U251 CNS,32.1 µM
same,TGI,LOX IMVI melanoma,> 100 µM
same,TGI,IGROV1 ovarian,> 100 µM
same,TGI,DU-145 prostate,> 100 µM
same,TGI,A549 NSCLC,> 100 µM
same,TGI,MDA-MB-435,82.9 µM
same,TGI,SK-MEL-2 melanoma,33.6 µM
same,TGI,HL-60(TB) leukemia,25.5 µM
same,TGI,ACHN renal,> 100 µM
same,TGI,HOP-62 NSCLC,92.7 µM
same,TGI,EKVX NSCLC,> 100 µM
same,TGI,NCI-H23 lung,41.7 µM
same,TGI,CCRF-CEM leukemia,32.9 µM
same,TGI,SN12C renal,32.2 µM
same,TGI,OVCAR-8 ovarian,> 100 µM
same,TGI,SNB-75 CNS,79.5 µM
same,TGI,HOP-92 NSCLC,> 100 µM
same,TGI,HCC-2998 colon,16.8 µM
same,TGI,SK-MEL-5 melanoma,25.3 µM
same,TGI,CAKI-1 renal,> 100 µM
same,TGI,NCI-H522 lung,30.3 µM
same,TGI,SF-268 CNS,> 100 µM
same,TGI,BT-549 breast,70.5 µM
same,TGI,OVCAR-3 ovarian,85.5 µM
same,TGI,OVCAR-4 ovarian,> 100 µM
same,TGI,SK-OV-3 ovarian,98.1 µM
same,TGI,HCT-116 colon,27.2 µM
same,TGI,UO-31 renal,> 100 µM
same,TGI,NCI/ADR-RES ovarian,67.7 µM
same,TGI,A498 renal,55.5 µM
same,TGI,UACC-62 melanoma,42.8 µM
same,TGI,TK-10 renal,88 µM
same,TGI,K-562 leukemia,> 100 µM
COc1cccc(/C=N/C(/N=C/c2cccc(OC)c2O)c2cccc(OC)c2O)c1O,TGI,PC-3 prostate,> 100 µM
same,TGI,M14 melanoma,48.2 µM
same,TGI,HS 578T breast,61.5 µM
same,TGI,NCI-H460 lung,59.9 µM
same,TGI,SNB-19 CNS,> 100 µM
same,TGI,KM12 colon,76.7 µM
same,TGI,UACC-257 melanoma,58.9 µM
same,TGI,OVCAR-5 ovarian,73.8 µM
same,TGI,MDA-N,> 100 µM
same,TGI,HT29 colon,> 100 µM
same,TGI,HCT-15 colon,> 100 µM
same,TGI,SF-295 CNS,80 µM
same,TGI,SK-MEL-28 melanoma,> 100 µM
same,TGI,786-0 renal,> 100 µM
same,TGI,MCF7 breast,62.8 µM
same,TGI,MDA-MB-231 breast,> 100 µM
same,TGI,COLO 205 colon,> 100 µM
same,TGI,T-47D breast,63.9 µM
same,TGI,SW-620 colon,> 100 µM
same,TGI,SF-539 CNS,48.9 µM
same,TGI,RPMI-8226 leukemia,> 100 µM
same,TGI,RXF 393 renal,29.2 µM
same,TGI,SR leukemia,35.1 µM
same,TGI,U251 CNS,80.1 µM
same,TGI,LOX IMVI melanoma,58 µM
same,TGI,IGROV1 ovarian,62.8 µM
same,TGI,DU-145 prostate,78.7 µM
same,TGI,A549 NSCLC,78.8 µM
same,TGI,MDA-MB-435,> 100 µM
same,TGI,SK-MEL-2 melanoma,43.2 µM
same,TGI,HL-60(TB) leukemia,68.5 µM
same,TGI,ACHN renal,58.6 µM
same,TGI,HOP-62 NSCLC,> 100 µM
same,TGI,EKVX NSCLC,52 µM
same,TGI,NCI-H23 lung,> 100 µM
same,TGI,CCRF-CEM leukemia,> 100 µM
same,TGI,SN12C renal,77.6 µM
same,TGI,OVCAR-8 ovarian,47.9 µM
same,TGI,SNB-75 CNS,48.1 µM
same,TGI,HOP-92 NSCLC,> 100 µM
same,TGI,HCC-2998 colon,73.9 µM
same,TGI,SK-MEL-5 melanoma,35.1 µM
same,TGI,CAKI-1 renal,48.1 µM
same,TGI,NCI-H522 lung,49.2 µM
same,TGI,SF-268 CNS,42.5 µM
same,TGI,BT-549 breast,71.9 µM
same,TGI,OVCAR-3 ovarian,62.4 µM
same,TGI,SK-OV-3 ovarian,78.1 µM
same,TGI,HCT-116 colon,> 100 µM
same,TGI,UO-31 renal,58.6 µM
same,TGI,NCI/ADR-RES ovarian,85.2 µM
same,TGI,UACC-62 melanoma,59.8 µM
same,TGI,TK-10 renal,55.6 µM
same,TGI,K-562 leukemia,> 100 µM
